According to patent publication US5013841A, “Oxo quinoline derivatives” (Dainippon Pharmaceutical Co., Ltd., priority 1987, dated 1991):
In brackets after ≈: the same amount, converted by molar mass. Where two headings read alike, the source gives them in different places.

Tests used:
[1] = system: C. Trachomatics G/ur 1467; test: Antichlamydia activity (inclusion bodies in McCoy cells); format: cell-based; details: 36° C., 40-48 h, calculated for free base, read-out: minimum inhibitory concentration (MIC)
Protocol: (§1) Minimum inhibitory concentrations (MIC) were determined as follows. McCoy cells were freshly cultured in Eagle's minimum essential medium (EMEM) (Flow) supplemented with 4% fetal bovine serum and 0.03% L-glutamine. The cells were trypsinized and suspended in the same culture medium at a cell concentration of 1-2×10^5 cells/ml. One ml of the cell suspension was pipetted into flat-bottomed plastic tubes (14 mm in diameter) containing a cover slip (12 mm in diameter). The tubes were incubated in 5% CO2 -air at 36° C. for 20 hours. One-half ml of a chlamydial suspension (ca. 1-4×10^3 inclusion body forming units) was added into each tube, which was then centrifuged at 1500×g for 60 minutes. The tubes were incubated for 1 hour at 36° C. The medium was changed with 1 ml of EMEM supplemented with 8% fetal bovine serum, 0.03% L-blutamine, 1μg/ml cycloheximide and 0.5% glucose, and containing drugs at various concentrations. After further incubation at 36° C. for 40-48 hours, the cells on the cover glasses were stained with the Giemsa's solution. […] The MIC was defined as the lowest drug concentration where there were no inclusion bodies in all the cells on the cover slip.

[2] = system: C. Trachomatics G/ur 1317; test: as above; format: cell-based; details: 36° C., 40-48 h, calculated for free base, read-out: minimum inhibitory concentration (MIC)
Protocol: as §1

[3] = system: C. Trachomatics G/ur 1483; test: as above; format: cell-based; details: 36° C., 40-48 h, calculated for free base, read-out: minimum inhibitory concentration (MIC)
Protocol: as §1

C. Trachomatics G/ur 931 = test: as above; format: cell-based; details: 36° C., 40-48 h, calculated for free base, read-out: minimum inhibitory concentration (MIC)
Protocol: as §1

[4] = system: Staphylococcus aureus 50774; format: in vivo, Staphylococcus aureus (male mice, Std-ddY); details: Staphylococcus aureus, 50774, po, 336 h, read-out: median effective dose (ED50)
Description: Staphylococcus aureus 50774
Intravenous infection with 5×10^8 cells per mouse suspended in saline.
For 7 days for other organisms.

S. epidermidis No. 8 = test: In vitro antibacterial activity (twofold agar-dilution method); format: cell-based; details: Staphylococcus epidermidis, NO.8, 20 h, read-out: minimum inhibitory concentration (MIC)
Protocol: (§2) The figures in the table show minimum inhibitory concentrations (MIC) (μg/ml), calculated for free base. The minimum inhibitory concentration was determined by the twofold agar-dilution method, which was recommended by Japan Society of Chemotherapy (Chemotherapy, 29(1), 76(1981)), using Muller-Hinton agar. One loopful of an overnight culture of test organisms in Mueller-Hinton broth was inoculated onto 10-ml drug-containing agar layers in petri dishes. Bacterial inocula contained approximately 10^6 colonyl-formingunits. Bacterial growth was observed after 20-hour incubation at 37° C. The MIC was defined as the lowest drug concentration which prevented visible bacterial growth.

E. coli P-5101 = test: as above; format: cell-based; details: Escherichia coli, P5101, 20 h, read-out: minimum inhibitory concentration (MIC)
Protocol: as §2

S. aureus Terajima = test: as above; format: cell-based; details: Staphylococcus aureus, 20 h, read-out: minimum inhibitory concentration (MIC)
Protocol: as §2

S. pyogenes Cook = test: as above; format: cell-based; details: Streptococcus pyogenes, 20 h, 37° C., calculated for free base, read-out: minimum inhibitory concentration (MIC)
Protocol: as §2

S. aureus No. 80 = test: as above; format: cell-based; details: Staphylococcus aureus, NO.80, 20 h, read-out: minimum inhibitory concentration (MIC)
Protocol: as §2

Flavobacterium sp P-7201 = test: as above; format: cell-based; details: Flavobacterium, P7201, 20 h, read-out: minimum inhibitory concentration (MIC)
Protocol: as §2

P. Aeruginosa 12 = test: as above; format: cell-based; details: Pseudomonas aeruginosa, 20 h, read-out: minimum inhibitory concentration (MIC)
Protocol: as §2

S. marcescens IFO 3736 = test: as above; format: cell-based; details: Serratia marcescens, IFO3736, 20 h, read-out: minimum inhibitory concentration (MIC)
Protocol: as §2

S. aureus 209 JC-1 = test: as above; format: cell-based; details: Staphylococcus aureus, 209JC1, 20 h, read-out: minimum inhibitory concentration (MIC)
Protocol: as §2

E. coli NIHJ JC-2 = test: as above; format: cell-based; details: Escherichia coli, NIHJJC2, 20 h, read-out: minimum inhibitory concentration (MIC)
Protocol: as §2

[5] = system: Streptococcus pneumoniae 1 Neufeld; format: in vivo, Streptococcus pneumoniae (male mice, Std-ddY); details: 336 h, read-out: median effective dose (ED50)
M. hominis PG-21 = test: Antimycoplasma activity (twofold agar dilution method); format: cell-based; details: Metamycoplasma hominis, PG21, 48 h, read-out: minimum inhibitory concentration (MIC)
Protocol: (§3) The figures in the table show minimum inhibitory concentrations (MIC), (μg/ml), calculated for free base.
(§4) Minimum inhibitory concentrations (MIC) were determined by the twofold agar dilution method. The media used were Chanock broth and agar PPLD broth and agar (Difco) supplemented with 20% horse serum and 10% fresh yeast extract). A 2-3 day broth culture of organisms was diluted with Chanock broth to a cell density of about 10^6 cells/ml. One loopful (about […]) of the organism dilution was spotted onto 10-ml drug containing Chanock agar in petri dishes using a multiple inoculator (Cathra International). The petri dishes were incubated at 37° C. for 7 and 2 days for Mycoplasma pneumoniae and other Mycoplasma spp. respectively. Incubation was performed anaerobically using the Gaspak anaerobic system (BBL) for M. buccale, M. fermentans, M. hominis, M. orale and M. salivarium, and aerobically for other Mycoplasma spp. The MIC was defined as the lowest compound concentration at which no growth of organism was detected.

M. buccale CH-20249 = test: as above; format: cell-based; details: 48 h, read-out: minimum inhibitory concentration (MIC)
Protocol: as §3, §4

M. salivarium PG-20 = test: as above; format: cell-based; details: 48 h, read-out: minimum inhibitory concentration (MIC)
Protocol: as §3, §4

M. fermentans PG-18 = test: as above; format: cell-based; details: Mycoplasmopsis fermentans, PG18, 48 h, read-out: minimum inhibitory concentration (MIC)
Protocol: as §3, §4

A. laidlawii PG-8 = test: as above; format: cell-based; details: Acholeplasma laidlawii, PG8, 48 h, read-out: minimum inhibitory concentration (MIC)
Protocol: as §3, §4

M. arginini G-230 = test: as above; format: cell-based; details: 48 h, read-out: minimum inhibitory concentration (MIC)
Protocol: as §3, §4

M. hyorhinis BST-7 = test: as above; format: cell-based; details: Mesomycoplasma hyorhinis, BST7, 48 h, read-out: minimum inhibitory concentration (MIC)
Protocol: as §3, §4

M. orale CH-19299 = test: as above; format: cell-based; details: 48 h, read-out: minimum inhibitory concentration (MIC)
Protocol: as §3, §4

M. pneumoniae Mac = test: as above; format: cell-based, Mycoplasma pneumoniae; details: Mycoplasmoides pneumoniae, 168 h, read-out: minimum inhibitory concentration (MIC)
Protocol: as §3, §4

[6] = system: Streptococcus pyogenes A65; details: A65, in Mus musculus, po, 168 h, read-out: median effective dose (ED50)
[7] = Urinary excretion in mice (thin-layer cup-plated method, Escherichia coli Kp indicator); format: in vivo; details: mouse, urine, oral, 5 mg/kg, read-out: Urinary recovery for 24 hours
Protocol: A suspension containing each of compounds was orally administered to mice at a dose of 5 mg/kg. Urine was collected over a period of 24 hours after adminstration. The levels of the compounds in urine were determined by the thin-layer cup-plated method using Escherichia coli Kp as an indicator organism.

Which MIC [1] does the source give for O=C(O)c1cn(C2CC2)c2cc(N3CCNCC3)c(F)cc2c1=O [Compound A, reference compound] here?
Its MIC is 1 mg/L (≈ 3.02 µM).

And the MIC [2]?
Its MIC is 2 mg/L (≈ 6.04 µM).

What about the MIC [3] of the same molecule?
Its MIC is 1 mg/L (≈ 3.02 µM).

And the MIC (C. Trachomatics G/ur 931)?
Its MIC is 1 mg/L (≈ 3.02 µM).

And the ED50 [4]?
The ED50 was 8.24 mg/kg.

And the MIC (S. epidermidis No. 8)?
Its MIC is 0.1 mg/L (≈ 0.302 µM).

What about the MIC (E. coli P-5101) of the same molecule?
The MIC was 0.0063 mg/L (≈ 0.019 µM).

What about the MIC (S. aureus Terajima) of the same molecule?
Its MIC is 0.1 mg/L (≈ 0.302 µM).

And the MIC (S. pyogenes Cook)?
Its MIC is 0.2 mg/L (≈ 0.604 µM).

And the MIC (S. aureus No. 80)?
The MIC was 0.39 mg/L (≈ 1.18 µM).

And the MIC (Flavobacterium sp P-7201)?
The MIC was 0.39 mg/L (≈ 1.18 µM).

What about the MIC (P. Aeruginosa 12) of the same molecule?
Its MIC is 0.1 mg/L (≈ 0.302 µM).

What about the MIC (S. marcescens IFO 3736) of the same molecule?
The MIC was 0.05 mg/L (≈ 0.151 µM).

What about the MIC (S. aureus 209 JC-1) of the same molecule?
Its MIC is 0.1 mg/L (≈ 0.302 µM).

What about the MIC (E. coli NIHJ JC-2) of the same molecule?
The MIC was 0.0063 mg/L (≈ 0.019 µM).

And the ED50 ([5]; po)?
Its ED50 is 31.3 mg/kg.

What about the MIC (M. hominis PG-21) of the same molecule?
The MIC was 1.56 mg/L (≈ 4.71 µM).

What about the MIC (M. buccale CH-20249) of the same molecule?
The MIC was 0.39 mg/L (≈ 1.18 µM).

What about the MIC (M. salivarium PG-20) of the same molecule?
The MIC was 3.13 mg/L (≈ 9.45 µM).

And the MIC (M. fermentans PG-18)?
Its MIC is 0.2 mg/L (≈ 0.604 µM).

What about the MIC (A. laidlawii PG-8) of the same molecule?
Its MIC is 0.39 mg/L (≈ 1.18 µM).

What about the MIC (M. arginini G-230) of the same molecule?
Its MIC is 0.39 mg/L (≈ 1.18 µM).

What about the MIC (M. hyorhinis BST-7) of the same molecule?
Its MIC is 0.39 mg/L (≈ 1.18 µM).

What about the MIC (M. orale CH-19299) of the same molecule?
Its MIC is 1.56 mg/L (≈ 4.71 µM).

And the MIC (M. pneumoniae Mac)?
Its MIC is 0.78 mg/L (≈ 2.35 µM).

What does the source list for Nc1c(F)c(N2CCNCC2)c(F)c2c1c(=O)c(C(=O)O)cn2C1CC1 [Compound B, 5-amino-1-cyclopropyl-6,8-difluoro-7-(1-piperazinyl)-1,4-dihydro-4-oxoquinoline-3-carboxylic acid, reference compound]?
ED50 [6]: > 50 mg/kg; MIC (S. epidermidis No. 8): 0.05 mg/L (≈ 0.137 µM); MIC (E. coli P-5101): 0.0063 mg/L (≈ 0.0173 µM); MIC (S. aureus Terajima; S. aureus Terajima, agar dilution, 37° C., calculated for free base): 0.025 mg/L (≈ 0.0686 µM); MIC (S. pyogenes Cook): 0.2 mg/L (≈ 0.549 µM); MIC (S. aureus No. 80): 0.05 mg/L (≈ 0.137 µM); MIC (Flavobacterium sp P-7201): 0.1 mg/L (≈ 0.274 µM); MIC (P. Aeruginosa 12): 0.1 mg/L (≈ 0.274 µM); MIC (S. marcescens IFO 3736): 0.1 mg/L (≈ 0.274 µM); MIC (S. aureus 209 JC-1): 0.05 mg/L (≈ 0.137 µM); MIC (E. coli NIHJ JC-2): 0.0063 mg/L (≈ 0.0173 µM); ED50 ([5]; mice, oral, four times (immediately, 6, 24 and 30 h after intraperitoneal infection), 14 days, calculated for free base): 20.8 mg/kg

For CC1CN(c2c(F)c(N)c3c(=O)c(C(=O)O)cn(C4CC4)c3c2F)CC(C)N1 (centres unmarked) [Compound C, 5-amino-1-cyclopropyl-6,8-difluoro-7-(3,5-dimethyl-1-piperazinyl)-1,4-dihydro-4-oxoquinoline-3-carboxylic acid, reference compound], which dose excreted at 24 h [7] is on record?
The dose excreted at 24 h was 4.51%.
